Consider 21 molecules from US8471005B2 (Cephalon, Inc., priority 2008, dated 2013).

pIC50: −log10 of the molar value.

One experiment concerns the target T1, ALK (Homo sapiens, UniProt Q9UM73).
T1 construct: host or cells: baculovirus expression system
The experiment is described as follows: ALK Kinase Assay (ELISA/TRF, PLC-γ substrate). The following applies: ALK kinase inhibition, 1 μM ATP; read-out: ALK Potency. The class given is biochemical. As for the experimental part: Briefly, each 96-well plate was coated with […] of 10 μg/mL substrate (phospholipase C-γ) in Tris-buffered saline (TBS). […] The reaction was initiated by adding enzyme (30 ng/ml ALK) and was allowed to proceed at 37° C. for 15 minutes. Detection of the phosphorylated product was performed by adding 100 μl/well of Eu—N1 labeled PT66 antibody (Perkin Elmer # AD0041).
Data analysis was performed using ActivityBase (IDBS, Guilford, UK). IC50 values were calculated by plotting percent inhibition versus log10 of the concentration of compound and fitting to the nonlinear regression sigmoidal dose-response (variable slope) equation in XLFit (IDBS, Guilford, UK).

The target in another experiment is T2, JAK2 (Homo sapiens, UniProt O60674).
T2 construct: host or cells: baculovirus expression system
T2 sequence (O60674 whole entry): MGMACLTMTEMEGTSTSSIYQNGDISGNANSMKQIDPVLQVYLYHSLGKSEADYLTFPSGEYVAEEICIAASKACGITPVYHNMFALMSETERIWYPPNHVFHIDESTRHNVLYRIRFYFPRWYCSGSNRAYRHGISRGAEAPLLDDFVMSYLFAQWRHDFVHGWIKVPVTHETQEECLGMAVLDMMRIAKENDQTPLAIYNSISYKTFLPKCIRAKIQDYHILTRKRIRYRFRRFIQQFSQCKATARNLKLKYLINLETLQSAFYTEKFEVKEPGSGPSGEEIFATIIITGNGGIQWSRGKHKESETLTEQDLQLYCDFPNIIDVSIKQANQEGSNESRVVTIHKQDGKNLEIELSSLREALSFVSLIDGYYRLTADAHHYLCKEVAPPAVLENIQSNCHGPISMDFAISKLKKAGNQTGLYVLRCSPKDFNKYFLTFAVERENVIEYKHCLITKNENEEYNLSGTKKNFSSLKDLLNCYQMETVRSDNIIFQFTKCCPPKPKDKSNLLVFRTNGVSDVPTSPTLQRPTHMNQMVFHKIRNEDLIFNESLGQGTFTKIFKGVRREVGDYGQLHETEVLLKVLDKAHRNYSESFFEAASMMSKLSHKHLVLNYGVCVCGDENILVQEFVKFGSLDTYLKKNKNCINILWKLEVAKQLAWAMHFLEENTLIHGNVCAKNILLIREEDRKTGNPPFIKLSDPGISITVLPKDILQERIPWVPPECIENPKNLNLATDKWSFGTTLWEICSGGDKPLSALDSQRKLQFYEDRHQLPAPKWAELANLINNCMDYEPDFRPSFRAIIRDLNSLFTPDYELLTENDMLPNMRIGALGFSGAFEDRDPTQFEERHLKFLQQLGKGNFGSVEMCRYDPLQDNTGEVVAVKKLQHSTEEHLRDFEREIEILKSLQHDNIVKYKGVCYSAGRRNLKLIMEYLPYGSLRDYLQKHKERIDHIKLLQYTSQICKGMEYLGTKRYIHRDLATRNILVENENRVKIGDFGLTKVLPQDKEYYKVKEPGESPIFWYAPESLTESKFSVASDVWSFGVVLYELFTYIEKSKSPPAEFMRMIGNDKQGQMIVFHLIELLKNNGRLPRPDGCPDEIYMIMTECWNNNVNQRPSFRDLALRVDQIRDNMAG
The experiment is described as follows: Recombinant Human JAK2 Kinase Assay (TRF). The class given is biochemical. The following applies: JAK2 kinase inhibition, 0.2 μM ATP; read-out: JAK2 Potency. As for the experimental part: Compounds were tested for their ability to inhibit the kinase activity of baculovirus-expressed JAK2 using the TRF detection system. […] The plates were coated first with 100 μL/well of 10 μg/mL Neutravidin (Pierce #31000, Rockford, Ill.) in TBS at 37° C. for 2 hours, followed by 100 μL/well of 1 μg/mL 15-mer peptide substrate (biotinyl-amino-hexanoyl-[…]-amide, Infinity Biotech Research and Resource, Aston, Pa.) at 37° C. for another hour. The JAK2 assay mixture (total volume=100 μL/well) consisting of 20 mM HEPES (pH 7.2), 0.2 μM ATP, 1 mM MnCl2, 0.1% BSA, and test compound (diluted in DMSO; 2.5% DMSO final in assay) was then added to the assay plate. Enzyme (15 ng/ml JAK2) was added and the reaction was allowed to proceed at room temperature for 20 minutes. Detection of the phosphorylated product was performed by adding 100 μL/well of Eu—N1 labeled PY100 antibody (PerkinElmer Life Sciences #AD0041, Boston, Mass.).

T1 sequence (Q9UM73 19-1620): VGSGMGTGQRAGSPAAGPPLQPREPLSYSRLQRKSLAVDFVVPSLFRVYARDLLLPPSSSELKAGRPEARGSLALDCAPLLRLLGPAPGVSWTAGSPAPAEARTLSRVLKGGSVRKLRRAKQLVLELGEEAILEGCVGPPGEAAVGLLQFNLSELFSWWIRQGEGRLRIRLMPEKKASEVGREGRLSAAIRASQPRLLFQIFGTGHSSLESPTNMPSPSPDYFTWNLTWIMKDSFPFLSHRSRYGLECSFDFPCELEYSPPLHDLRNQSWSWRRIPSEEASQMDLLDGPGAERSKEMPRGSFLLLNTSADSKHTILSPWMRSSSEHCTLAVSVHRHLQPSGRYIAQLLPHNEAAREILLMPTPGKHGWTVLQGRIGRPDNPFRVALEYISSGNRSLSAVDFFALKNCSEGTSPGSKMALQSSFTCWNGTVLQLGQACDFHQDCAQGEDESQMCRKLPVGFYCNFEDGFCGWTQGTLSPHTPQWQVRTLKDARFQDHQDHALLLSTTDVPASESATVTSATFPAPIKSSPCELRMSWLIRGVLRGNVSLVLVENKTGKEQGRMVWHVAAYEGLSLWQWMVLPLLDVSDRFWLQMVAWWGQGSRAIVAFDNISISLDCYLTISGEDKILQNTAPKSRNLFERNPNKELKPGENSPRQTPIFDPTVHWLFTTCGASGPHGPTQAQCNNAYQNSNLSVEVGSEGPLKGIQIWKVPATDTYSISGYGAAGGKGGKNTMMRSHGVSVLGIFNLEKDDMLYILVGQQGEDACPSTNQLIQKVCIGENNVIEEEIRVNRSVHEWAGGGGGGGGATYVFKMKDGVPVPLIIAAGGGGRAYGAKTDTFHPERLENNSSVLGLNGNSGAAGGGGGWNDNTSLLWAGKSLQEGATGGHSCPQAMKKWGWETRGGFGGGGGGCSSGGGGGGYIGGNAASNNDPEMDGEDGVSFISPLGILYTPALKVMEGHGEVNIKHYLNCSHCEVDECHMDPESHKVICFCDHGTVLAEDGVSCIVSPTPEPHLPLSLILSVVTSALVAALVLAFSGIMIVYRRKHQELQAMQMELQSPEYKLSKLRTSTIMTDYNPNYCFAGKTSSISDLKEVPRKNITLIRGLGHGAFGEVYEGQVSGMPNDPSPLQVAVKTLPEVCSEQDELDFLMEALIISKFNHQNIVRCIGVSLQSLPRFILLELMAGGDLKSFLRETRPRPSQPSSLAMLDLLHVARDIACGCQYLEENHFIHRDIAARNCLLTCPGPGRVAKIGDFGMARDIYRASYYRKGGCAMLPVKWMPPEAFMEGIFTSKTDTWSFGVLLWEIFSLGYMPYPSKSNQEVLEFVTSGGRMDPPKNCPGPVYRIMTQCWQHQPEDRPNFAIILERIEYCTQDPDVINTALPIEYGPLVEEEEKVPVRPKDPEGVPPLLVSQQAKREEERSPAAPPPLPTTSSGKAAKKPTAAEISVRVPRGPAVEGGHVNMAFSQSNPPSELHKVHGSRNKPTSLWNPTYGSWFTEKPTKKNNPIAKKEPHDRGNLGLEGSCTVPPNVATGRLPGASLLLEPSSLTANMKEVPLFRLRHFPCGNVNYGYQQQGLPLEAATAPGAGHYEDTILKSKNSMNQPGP

For the molecule `COc1ccccc1-c1ccc2cnc(Nc3ccc4c(c3OC)CC(N3CCOCC3)CCC4)nn12` (racemic) [Example 768, (±)-1-Methoxy-8-morpholin-4-yl-6,7,8,9-tetrahydro-5H-enzocyclohepten-2-yl)-[7-(2-methoxy-phenyl)-pyrrolo[2,1-f][1,2,4]triazin-2-yl]-amine], the pIC50 at ALK and on JAK2 was 6.00 to 7.00 throughout.
Consider `CCN1CCCC(CC)(c2ccc(Nc3ncc4ccc(-c5ccccc5OC)n4n3)cc2)C1` (racemic) [Example 777, (±)-[4-(1,3-Diethyl-piperidin-3-yl)-phenyl]-[7-(2-methoxy-phenyl)pyrrolo-[2,1-f][1,2,4]triazin-2-yl]-amine], for which the pIC50 on ALK and on JAK2 was above 7.00 each time.
`CCN1CCCC(CC)(c2ccc(Nc3ncc4ccc(-c5ccccc5N(C)S(C)(=O)=O)n4n3)cc2)C1` (racemic) [Example 778, (±)-N-(2-{2-[4-(1,3-Diethyl-piperidin-3-yl)-phenylamino]-pyrrolo[2,1-f][1,2,4]triazin-7-yl}-phenyl)-N-methyl-methanesulfonamide]: the pIC50 at ALK and on JAK2 was above 7.00 in each case.
Turning to `COc1cc(N2CCC(N3CCOCC3)C2)ccc1Nc1ncc2ccc(-c3ccccc3OC)n2n1` (racemic) [Example 779, (±)-[2-Methoxy-4-(3-morpholin-4-yl-pyrrolidin-1-yl)-phenyl]-[7-(2-methoxyphenyl)-pyrrolo[2,1-f][1,2,4]triazin-2-yl]-amine], the pIC50 at ALK and at JAK2 was 6.00 to 7.00 each time.
On to `COc1cc(N2CCC(N3CCOCC3)C2)ccc1Nc1ncc2ccc(-c3ccccc3N(C)S(C)(=O)=O)n2n1` (racemic) [Example 782, (±)-N-(2-{2-[2-Methoxy-4-(3-morpholin-4-yl-pyrrolidin-1-yl)-phenylamino]-pyrrolo[2,1-f][1,2,4]triazin-7-yl}-phenyl)-N-methyl-methanesulfonamide], for which the pIC50 on ALK was above 7.00; at JAK2 it was 6.00 to 7.00.
For `COc1cc(C2CCN(CC(O)CF)CC2)ccc1Nc1ncc2ccc(-c3ccccc3N(C)S(C)(=O)=O)n2n1` (racemic) [Example 826, (±)-N-[2-(2-{4-[1-(3-Fluoro-2-hydroxy-propyl)-piperidin-4-yl]-2-methoxy-phenylamino}-pyrrolo[2,1-f][1,2,4]triazin-7-yl)-phenyl]-N-methyl-methanesulfonamide], in that order: above 7.00 and 6.00 to 7.00.
In the same order, the values of `COc1cc([C@@]2(O)CCN(CCF)C[C@@H]2O)ccc1Nc1ncc2ccc(-c3ccccc3OC)n2n1` (racemic) [Example 833, (±)-(3S,4S)-1-(2-Fluoro-ethyl)-4-{3-methoxy-4-[7-(2-methoxy-phenyl)-pyrrolo[2,1-f][1,2,4]triazin-2-ylamino]-phenyl}-piperidine-3,4-diol] are above 7.00 and above 7.00.
In the same order, the values of `COc1cc([C@@H]2CCN(C(=O)OC(C)(C)C)C[C@@H]2O)ccc1Nc1ncc2ccc(-c3ccccc3OC)n2n1` (racemic) [Example 834, (±)-(3R,4S)-3-Hydroxy-4-{3-methoxy-4-[7-(2-methoxy-phenyl)-pyrrolo[2,1-f][1,2,4]triazin-2-ylamino]-phenyl}-piperidine-1-carboxylic acid tert-butyl ester] are 6.00 to 7.00 and 6.00 to 7.00.
Consider `COc1cc(C2CCN(CC(N)=O)C2)ccc1Nc1ncc2ccc(-c3ccccc3OC)n2n1` (racemic) [Example 836, (±)-2-(3-{3-Methoxy-4-[7-(2-methoxy-phenyl)-pyrrolo[2,1-f][1,2,4]triazin-2-ylamino]-phenyl}-pyrrolidin-1-yl)-acetamide], for which the pIC50 on ALK and on JAK2 was above 7.00 throughout.
For `COc1cc(C2CCN(CC(N)=O)C2)ccc1Nc1ncc2ccc(-c3ccccc3N(C)S(C)(=O)=O)n2n1` (racemic) [Example 837, (±)-2-[3-(4-{7-[2-(Methanesulfonyl-methyl-amino)-phenyl]-pyrrolo[2,1-f][1,2,4]triazin-2-ylamino}-3-methoxy-phenyl)-pyrrolidin-1-yl]-acetamide], the pIC50 was above 7.00 on ALK and 6.00 to 7.00 at JAK2.
As for `COc1cc([C@@H]2CCN(CCF)C[C@@H]2O)ccc1Nc1ncc2ccc(-c3ccccc3OC)n2n1` (racemic) [Example 838, (±)-(3R,4S)-1-(2-Fluoro-ethyl)-4-{3-methoxy-4-[7-(2-methoxy-phenyl)-pyrrolo[2,1-f][1,2,4]triazin-2-ylamino]-phenyl}-piperidin-3-ol], the pIC50 at ALK and at JAK2 was above 7.00 each time.
As for `COc1cc([C@@H]2CCNC[C@@H]2O)ccc1Nc1ncc2ccc(-c3ccccc3N(C)S(C)(=O)=O)n2n1` (racemic) [Example 841, (±)-N-(2-{2-[4-((3R,4S)-3-Hydroxy-piperidin-4-yl)-2-methoxy-phenylamino]-pyrrolo[2,1-f][1,2,4]triazin-7-yl}-phenyl)-N-methyl-methanesulfonamide], the pIC50 on ALK was above 7.00; on JAK2, 5.00 to 6.00.
In the same order, the values of `COc1cc([C@@H]2CCN(CC(N)=O)C[C@@H]2O)ccc1Nc1ncc2ccc(-c3ccccc3N(C)S(C)(=O)=O)n2n1` (racemic) [Example 842, (±)-2-[(3R,4S)-3-Hydroxy-4-(4-{7-[2-(methanesulfonyl-methyl-amino)-phenyl]-pyrrolo[2,1-f][1,2,4]triazin-2-ylamino}-3-methoxy-phenyl)-piperidin-1-yl]-acetamide] are above 7.00 and 6.00 to 7.00.
For `COc1cc([C@@H]2CCN(CCF)C[C@@H]2O)ccc1Nc1ncc2ccc(-c3ccccc3N(C)S(C)(=O)=O)n2n1` (racemic) [Example 843, (±)-N-[2-(2-{4-[(3R,4S)-1-(2-Fluoro-ethyl)-3-hydroxy-piperidin-4-yl]-2-methoxy-phenylamino}-pyrrolo[2,1-f][1,2,4]triazin-7-yl)-phenyl]-N-methyl-methanesulfonamide], in that order: above 7.00 and 6.00 to 7.00.
For `COc1cc([C@@]2(O)CCN(CCF)C[C@@H]2O)ccc1Nc1ncc2ccc(-c3ccccc3N(C)S(C)(=O)=O)n2n1` (racemic) [Example 845, (±)-N-[2-(2-{4-[(3S,4S)-1-(2-Fluoro-ethyl)-3,4-dihydroxy-piperidin-4-yl]-2-methoxy-phenylamino}-pyrrolo[2,1-f][1,2,4]triazin-7-yl)-phenyl]-N-methyl-methanesulfonamide], in that order: above 7.00 and 6.00 to 7.00.
In the case of `COCCN1CC[C@](O)(c2ccc(Nc3ncc4ccc(-c5ccccc5N(C)S(C)(=O)=O)n4n3)c(OC)c2)[C@@H](O)C1` (racemic) [Example 846, (±)-N-[2-(2-{4-[(3S,4S)-3,4-Dihydroxy-1-(2-methoxy-ethyl)-piperidin-4-yl]-2-methoxy-phenylamino}-pyrrolo[2,1-f][1,2,4]triazin-7-yl)-phenyl]-N-methyl-methanesulfonamide], the figures for the pIC50 on ALK and at JAK2 were above 7.00 and 6.00 to 7.00, respectively.
`COc1cc([C@@H]2CCN(CCO)C[C@@H]2O)ccc1Nc1ncc2ccc(-c3ccccc3N(C)S(C)(=O)=O)n2n1` (racemic) [Example 847, (±)-N-[2-(2-{4-[(3R,4S)-3-Hydroxy-1-(2-hydroxy-ethyl)-piperidin-4-yl]-2-methoxy-phenylamino}-pyrrolo[2,1-f][1,2,4]triazin-7-yl)-phenyl]-N-methyl-methanesulfonamide]: the pIC50 is above 7.00 at ALK and 6.00 to 7.00 at JAK2.
Turning to `COc1cc(C2CCN(C)CC2C)ccc1Nc1ncc2ccc(-c3ccccc3OC)n2n1` (racemic) [Example 858, (±)-[4-(1,3-Dimethyl-piperidin-4-yl)-2-methoxy-phenyl]-[7-(2-methoxy-phenyl)-pyrrolo[2,1-f][1,2,4]triazin-2-yl]-amine], the pIC50 at ALK is above 7.00; on JAK2, 6.00 to 7.00.
For the molecule `COc1cc(C2CCN(C)CC2OC)ccc1Nc1ncc2ccc(-c3ccccc3OC)n2n1` (racemic) [Example 859, (±)-[2-Methoxy-4-(3-methoxy-1-methyl-piperidin-4-yl)-phenyl]-[7-(2-methoxy-phenyl)-pyrrolo[2,1-f][1,2,4]triazin-2-yl]-amine], the pIC50 at ALK and on JAK2 was above 7.00 in each case.
As for `COc1cc(C2CCCN(CC(N)=O)C2)ccc1Nc1ncc2ccc(-c3ccccc3OC)n2n1` (racemic) [Example 860, (±)-2-(3-{3-Methoxy-4-[7-(2-methoxy-phenyl)-pyrrolo[2,1-f][1,2,4]triazin-2-ylamino]-phenyl}-piperidin-1-yl)-acetamide], the pIC50 on ALK and at JAK2 was above 7.00 in each case.
As to `COc1cc(C2CCCN(CC(N)=O)C2)ccc1Nc1ncc2ccc(-c3ccccc3N(C)S(C)(=O)=O)n2n1` (racemic) [Example 861, (±)-2-[3-(4-{7-[2-(Methanesulfonyl-methyl-amino)-phenyl]-pyrrolo[2,1-f][1,2,4]triazin-2-ylamino}-3-methoxy-phenyl)-piperidin-1-yl]-acetamide], the pIC50 on ALK was above 7.00; on JAK2 it was 6.00 to 7.00.
